# In ChEMBL document CHEMBL5252552, “Defined concatenated α6α1β3γ2 GABAA receptor constructs reveal dual action of pyrazoloquinolinone allosteric modulators” (Bioorg Med Chem, 2019):
# Tests used:
# Oocyte = test: Positive allosteric modulation of rat recombinant GABAA alpha1beta3alpha1 receptor expressed in Xenopus laevis oocytes assessed as activation of maximal current at -80 mV holding potential in presence of GABA EC1 to 1.5 by two-electrode voltage-clamp assay; format: cell-based; details: filed as positive allosteric modulator
# [1] = target: T1, Gamma-aminobutyric acid receptor subunit alpha-6/beta-3/gamma-2 (Rattus norvegicus) (UniProt P18508+P30191+P63079); test: Positive allosteric modulation of rat recombinant GABAA alpha6beta3alpha6-gamma2beta3 receptor expressed in Xenopus laevis oocytes assessed as maximal efficacy at -80 mV holding potential at 30 nM in presence of GABA EC1 to 1.5 by two-electrode voltage-clamp assay; format: cell-based; details: Oocyte
# [2] = target: T1, Gamma-aminobutyric acid receptor subunit alpha-6/beta-3/gamma-2 (Rattus norvegicus); test: Positive allosteric modulation of rat recombinant GABAA alpha6beta3alpha6-gamma2beta3 receptor expressed in Xenopus laevis oocytes assessed as maximal efficacy at -80 mV holding potential at 3 uM in presence of GABA EC1 to 1.5 by two-electrode voltage-clamp assay; format: cell-based; details: Oocyte, filed as positive allosteric modulator
# [3] = target: T1, Gamma-aminobutyric acid receptor subunit alpha-6/beta-3/gamma-2 (Rattus norvegicus); test: Positive allosteric modulation of rat recombinant GABAA alpha6beta3alpha6-gamma2beta3 receptor expressed in Xenopus laevis oocytes assessed as maximal efficacy at -80 mV holding potential at 10 uM in presence of GABA EC1 to 1.5 by two-electrode voltage-clamp assay; format: cell-based; details: Oocyte, filed as positive allosteric modulator
# [4] = target: T1, Gamma-aminobutyric acid receptor subunit alpha-6/beta-3/gamma-2 (Rattus norvegicus); test: Positive allosteric modulation of rat recombinant GABAA alpha6beta3alpha6-gamma2beta3 receptor expressed in Xenopus laevis oocytes assessed as maximal efficacy at -80 mV holding potential at 3 nM in presence of GABA EC1 to 1.5 by two-electrode voltage-clamp assay; format: cell-based; details: Oocyte
# [5] = target: T1, Gamma-aminobutyric acid receptor subunit alpha-6/beta-3/gamma-2 (Rattus norvegicus); test: Positive allosteric modulation of rat recombinant GABAA alpha6beta3alpha6-gamma2beta3 receptor expressed in Xenopus laevis oocytes assessed as maximal efficacy at -80 mV holding potential at 1 uM in presence of GABA EC1 to 1.5 by two-electrode voltage-clamp assay; format: cell-based; details: Oocyte, filed as positive allosteric modulator
# [6] = target: T2, Gamma-aminobutyric acid receptor subunit alpha-6/beta-3/gamma-2 (Rattus norvegicus, UniProt P18508+P30191+P63079); test: (§1) Positive allosteric modulation of rat recombinant GABAA alpha6beta3alpha6-gamma2beta3 receptor expressed in Xenopus laevis oocytes assessed as increase in GABA-induced current amplitude at -80 mV holding potential under less potent phase in presence of GABA EC1 to 1.5 by two-electrode voltage-clamp assay; format: cell-based, Oocyte
# T2 sequence (P18508 whole entry): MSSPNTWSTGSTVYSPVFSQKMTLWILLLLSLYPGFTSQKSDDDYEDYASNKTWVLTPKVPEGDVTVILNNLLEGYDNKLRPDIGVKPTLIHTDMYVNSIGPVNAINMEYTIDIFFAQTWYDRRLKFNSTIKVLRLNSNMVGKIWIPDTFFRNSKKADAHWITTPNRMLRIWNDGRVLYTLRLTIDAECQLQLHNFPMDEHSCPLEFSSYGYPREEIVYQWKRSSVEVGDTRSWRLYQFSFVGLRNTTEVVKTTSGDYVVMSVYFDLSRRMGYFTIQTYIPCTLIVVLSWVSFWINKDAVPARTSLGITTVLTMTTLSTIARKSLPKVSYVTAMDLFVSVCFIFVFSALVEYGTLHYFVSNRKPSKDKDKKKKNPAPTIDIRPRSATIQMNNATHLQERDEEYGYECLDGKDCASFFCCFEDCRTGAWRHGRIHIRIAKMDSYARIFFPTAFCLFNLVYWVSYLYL
# T2 sequence (P30191 whole entry): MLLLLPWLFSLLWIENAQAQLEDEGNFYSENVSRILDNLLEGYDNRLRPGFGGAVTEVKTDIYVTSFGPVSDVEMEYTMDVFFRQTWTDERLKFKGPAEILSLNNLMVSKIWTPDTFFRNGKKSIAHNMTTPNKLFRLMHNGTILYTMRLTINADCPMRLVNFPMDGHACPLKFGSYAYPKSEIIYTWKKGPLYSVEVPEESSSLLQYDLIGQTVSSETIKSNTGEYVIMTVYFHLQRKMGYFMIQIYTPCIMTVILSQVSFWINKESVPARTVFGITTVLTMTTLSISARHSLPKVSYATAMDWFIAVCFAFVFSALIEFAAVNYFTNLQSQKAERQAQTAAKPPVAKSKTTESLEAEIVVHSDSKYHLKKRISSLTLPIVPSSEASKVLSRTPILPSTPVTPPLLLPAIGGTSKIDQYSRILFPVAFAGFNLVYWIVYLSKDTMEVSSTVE
# T2 sequence (P63079 whole entry): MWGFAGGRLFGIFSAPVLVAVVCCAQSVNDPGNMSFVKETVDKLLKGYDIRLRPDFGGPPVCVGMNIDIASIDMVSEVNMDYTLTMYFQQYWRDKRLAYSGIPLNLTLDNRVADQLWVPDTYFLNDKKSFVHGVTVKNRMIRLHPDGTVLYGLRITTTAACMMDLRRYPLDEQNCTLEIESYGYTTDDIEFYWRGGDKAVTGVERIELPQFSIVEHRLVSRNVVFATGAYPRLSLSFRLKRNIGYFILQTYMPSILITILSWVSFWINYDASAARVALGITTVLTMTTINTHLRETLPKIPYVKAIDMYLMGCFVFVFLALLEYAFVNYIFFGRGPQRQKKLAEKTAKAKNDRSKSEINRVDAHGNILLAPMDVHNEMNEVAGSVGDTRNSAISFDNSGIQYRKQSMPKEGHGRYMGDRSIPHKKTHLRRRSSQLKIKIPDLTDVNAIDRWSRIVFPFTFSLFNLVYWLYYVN
# [7] = target: T2, Gamma-aminobutyric acid receptor subunit alpha-6/beta-3/gamma-2; test: as §1, with “more” for “less”; format: cell-based, Oocyte
# [8] = target: T3, Gamma-aminobutyric acid receptor subunit alpha-1/alpha-6/beta-3/gamma-2 (Rattus norvegicus) (UniProt P18508+P30191+P62813+P63079); test: Positive allosteric modulation of rat recombinant GABAA alpha6beta3alpha1-gamma2beta3 receptor expressed in Xenopus laevis oocytes assessed as maximal efficacy at -80 mV holding potential at 300 nM in presence of GABA EC1 to 1.5 by two-electrode voltage-clamp assay; format: cell-based; details: Oocyte
# [9] = target: T1, Gamma-aminobutyric acid receptor subunit alpha-6/beta-3/gamma-2 (Rattus norvegicus); test: Positive allosteric modulation of rat recombinant GABAA alpha6beta3alpha6-gamma2beta3 receptor expressed in Xenopus laevis oocytes assessed as maximal efficacy at -80 mV holding potential at 30 uM in presence of GABA EC1 to 1.5 by two-electrode voltage-clamp assay; format: cell-based; details: Oocyte, filed as positive allosteric modulator
# [10] = target: T1, Gamma-aminobutyric acid receptor subunit alpha-6/beta-3/gamma-2 (Rattus norvegicus); test: Positive allosteric modulation of rat recombinant GABAA alpha6beta3alpha6-gamma2beta3 receptor expressed in Xenopus laevis oocytes assessed as maximal current under less potent phase in presence of GABA EC1 to 1.5 by two-electrode voltage-clamp assay relative to control; format: cell-based; details: Oocyte, filed as positive allosteric modulator
# [11] = target: T1, Gamma-aminobutyric acid receptor subunit alpha-6/beta-3/gamma-2 (Rattus norvegicus); test: Positive allosteric modulation of rat recombinant GABAA alpha6beta3alpha6-gamma2beta3 receptor expressed in Xenopus laevis oocytes assessed as maximal efficacy at -80 mV holding potential at 10 nM in presence of GABA EC1 to 1.5 by two-electrode voltage-clamp assay; format: cell-based; details: Oocyte
# [12] = target: T1, Gamma-aminobutyric acid receptor subunit alpha-6/beta-3/gamma-2 (Rattus norvegicus); test: Positive allosteric modulation of rat recombinant GABAA alpha6beta3alpha6-gamma2beta3 receptor expressed in Xenopus laevis oocytes assessed as maximal efficacy at -80 mV holding potential at 300 nM in presence of GABA EC1 to 1.5 by two-electrode voltage-clamp assay; format: cell-based; details: Oocyte, filed as positive allosteric modulator
# [13] = target: T1, Gamma-aminobutyric acid receptor subunit alpha-6/beta-3/gamma-2 (Rattus norvegicus); test: Positive allosteric modulation of rat recombinant GABAA alpha6beta3alpha6-gamma2beta3 receptor expressed in Xenopus laevis oocytes assessed as maximal efficacy at -80 mV holding potential at 1 nM in presence of GABA EC1 to 1.5 by two-electrode voltage-clamp assay; format: cell-based; details: Oocyte
# [14] = target: T4, Gamma-aminobutyric acid receptor subunit alpha-1/beta-3/gamma-2 (Rattus norvegicus) (UniProt P18508+P62813+P63079); test: Positive allosteric modulation of rat recombinant GABAA alpha1beta3alpha1-gamma2beta3 receptor expressed in Xenopus laevis oocytes assessed as maximal efficacy at -80 mV holding potential at 30 uM in presence of GABA EC1 to 1.5 by two-electrode voltage-clamp assay; format: cell-based; details: Oocyte
# [15] = target: T3, Gamma-aminobutyric acid receptor subunit alpha-1/alpha-6/beta-3/gamma-2 (Rattus norvegicus); test: Positive allosteric modulation of rat recombinant GABAA alpha6beta3alpha1-gamma2beta3 receptor expressed in Xenopus laevis oocytes assessed as maximal efficacy at -80 mV holding potential at 100 nM in presence of GABA EC1 to 1.5 by two-electrode voltage-clamp assay; format: cell-based; details: Oocyte
# [16] = target: T1, Gamma-aminobutyric acid receptor subunit alpha-6/beta-3/gamma-2 (Rattus norvegicus); test: Positive allosteric modulation of rat recombinant GABAA alpha6beta3alpha6-gamma2beta3 receptor expressed in Xenopus laevis oocytes assessed as maximal efficacy at -80 mV holding potential at 100 nM in presence of GABA EC1 to 1.5 by two-electrode voltage-clamp assay; format: cell-based; details: Oocyte, filed as positive allosteric modulator
# [17] = target: T1, Gamma-aminobutyric acid receptor subunit alpha-6/beta-3/gamma-2 (Rattus norvegicus); test: Positive allosteric modulation of rat recombinant GABAA alpha6beta3alpha6-gamma2beta3 receptor expressed in Xenopus laevis oocytes assessed as maximal current at -80 mV holding potential under more potent phase in presence of GABA EC1 to 1.5 by two-electrode voltage-clamp assay relative to control; format: cell-based; details: Oocyte, filed as positive allosteric modulator
# [18] = target: T3, Gamma-aminobutyric acid receptor subunit alpha-1/alpha-6/beta-3/gamma-2 (Rattus norvegicus); test: Positive allosteric modulation of rat recombinant GABAA alpha6beta3alpha1-gamma2beta3 receptor expressed in Xenopus laevis oocytes assessed as maximal efficacy at -80 mV holding potential at 30 nM in presence of GABA EC1 to 1.5 by two-electrode voltage-clamp assay; format: cell-based; details: Oocyte
# [19] = target: T3, Gamma-aminobutyric acid receptor subunit alpha-1/alpha-6/beta-3/gamma-2 (Rattus norvegicus); test: Positive allosteric modulation of rat recombinant GABAA alpha6beta3alpha1-gamma2beta3 receptor expressed in Xenopus laevis oocytes assessed as maximal efficacy at -80 mV holding potential at 30 uM in presence of GABA EC1 to 1.5 by two-electrode voltage-clamp assay; format: cell-based; details: Oocyte, filed as positive allosteric modulator
# [20] = target: T1, Gamma-aminobutyric acid receptor subunit alpha-6/beta-3/gamma-2 (Rattus norvegicus); test: Positive allosteric modulation of rat recombinant GABAA alpha6beta3gamma2 receptor expressed in Xenopus laevis oocytes assessed as potentiation of GABA-induced response under more potent current at -80 mV holding potential at 100 nM in presence of GABA EC1 to 1.5 by two-electrode voltage-clamp assay; format: cell-based; details: Oocyte, filed as positive allosteric modulator
# [21] = target: T4, Gamma-aminobutyric acid receptor subunit alpha-1/beta-3/gamma-2 (Rattus norvegicus); test: Positive allosteric modulation of rat recombinant GABAA alpha1beta3alpha1-gamma2beta3 receptor expressed in Xenopus laevis oocytes assessed as maximal efficacy at -80 mV holding potential at 100 nM in presence of GABA EC1 to 1.5 by two-electrode voltage-clamp assay; format: cell-based; details: Oocyte
# [22] = target: T4, Gamma-aminobutyric acid receptor subunit alpha-1/beta-3/gamma-2 (Rattus norvegicus); test: Positive allosteric modulation of rat recombinant GABAA alpha1beta3alpha1-gamma2beta3 receptor expressed in Xenopus laevis oocytes assessed as maximal efficacy at -80 mV holding potential at 300 nM in presence of GABA EC1 to 1.5 by two-electrode voltage-clamp assay; format: cell-based; details: Oocyte
# [23] = target: T1, Gamma-aminobutyric acid receptor subunit alpha-6/beta-3/gamma-2 (Rattus norvegicus); test: Positive allosteric modulation of rat recombinant GABAA alpha6beta3gamma2 receptor expressed in Xenopus laevis oocytes assessed as potentiation of GABA-induced response under more potent current at -80 mV holding potential at 30 uM in presence of GABA EC1 to 1.5 by two-electrode voltage-clamp assay; format: cell-based; details: Oocyte, filed as positive allosteric modulator
# [24] = target: T1, Gamma-aminobutyric acid receptor subunit alpha-6/beta-3/gamma-2 (Rattus norvegicus); test: Positive allosteric modulation of rat recombinant GABAA alpha6beta3gamma2 receptor expressed in Xenopus laevis oocytes assessed as potentiation of GABA-induced response under less potent current at -80 mV holding potential at 30 uM in presence of GABA EC1 to 1.5 by two-electrode voltage-clamp assay; format: cell-based; details: Oocyte, filed as positive allosteric modulator
# [25] = target: T4, Gamma-aminobutyric acid receptor subunit alpha-1/beta-3/gamma-2 (Rattus norvegicus); test: Positive allosteric modulation of rat recombinant GABAA alpha1beta3alpha1-gamma2beta3 receptor expressed in Xenopus laevis oocytes assessed as maximal efficacy at -80 mV holding potential at 30 nM in presence of GABA EC1 to 1.5 by two-electrode voltage-clamp assay; format: cell-based; details: Oocyte
# [26] = target: T2, Gamma-aminobutyric acid receptor subunit alpha-6/beta-3/gamma-2; test: Positive allosteric modulation of rat recombinant GABAA alpha6beta3alpha6-gamma2beta3 receptor expressed in Xenopus laevis oocytes assessed as increase in GABA-induced current amplitude at -80 mV holding potential in presence of GABA EC1 to 1.5 by two-electrode voltage-clamp assay; format: cell-based, Oocyte
# [27] = target: T1, Gamma-aminobutyric acid receptor subunit alpha-6/beta-3/gamma-2 (Rattus norvegicus); test: Positive allosteric modulation of rat recombinant GABAA alpha6beta3alpha6-gamma2beta3 receptor expressed in Xenopus laevis oocytes assessed as maximal current at -80 mV holding potential in presence of GABA EC1 to 1.5 by two-electrode voltage-clamp assay relative to control; format: cell-based; details: Oocyte, filed as positive allosteric modulator
# [28] = filed as positive allosteric modulator
SMILES,Efficacy [1] [%],Efficacy [2] [%],Efficacy [3] [%],Efficacy [4] [%],Efficacy [5] [%],EC50 [6] [µM],EC50 [7] [nM],Efficacy [8] [%],Efficacy [9] [%],%max [10] [%],Efficacy [11] [%],Efficacy [12] [%],Efficacy [13] [%],"Efficacy [14, 28] [%]",Efficacy [15] [%],Efficacy [16] [%],%max [17] [%],Efficacy [18] [%],Efficacy [19] [%],"Efficacy [1, 28] [%]",also measured
CN1C(=O)CN=C(c2ccccc2)c2cc(Cl)ccc21,,,,,,,,,,,,,,,,,,,,,Activity (Oocyte): 30 nanoampere
CCc1ccc2c3nn(-c4ccc(OC)cc4)c(=O)c-3c[nH]c2c1,29,216,621,4,127,299,23,7,1940,4980,21,74,3,1040,5,54,57,5,1510,,
COc1ccc(-n2nc3c4ccc(Cl)cc4[nH]cc-3c2=O)cc1,,387,688,13,180,17,10,,703,796,22,94,6,,,65,56,,,40,
COc1ccc(-n2nc3c4ccc(C(C)=O)cc4[nH]cc-3c2=O)cc1,31,127,205,13,101,735,50,11,426,2210,27,67,9,,3,52,82,3,338,,Activity [20]: 62%; Efficacy [21]: 1%; Efficacy [22]: 1%; Activity [23]: 280%; Activity [24]: 80%; Efficacy [25]: 1%; Efficacy [14]: 10%
COc1ccc(-n2nc3c4ccc(F)cc4[nH]cc-3c2=O)cc1,,235,300,16,156,32,28,,385,353,28,118,6,,,77,96,,,46,
COc1ccc(-n2nc3c4ccccc4[nH]cc-3c2=O)cc1,19,214,751,1,152,,,,1360,,8,63,,,,57,,,,,EC50 [26]: 9 µM; %max [27]: 1480%
COc1ccc(-n2nc3c4ccc(C(F)(F)F)cc4[nH]cc-3c2=O)cc1,,216,590,23,147,100,13,10,1370,2970,,100,13,851,5,83,49,1,1570,62,"Efficacy [21]: 14%; Efficacy [22]: 18%; Efficacy [11, 28]: 43%; Efficacy [25]: 9%"
COc1ccc(-n2nc3c4ccc(C)cc4[nH]cc-3c2=O)cc1,,456,1020,31,234,,,,1310,,,149,25,,,100,,,,60,"EC50 [26]: 13 µM; Efficacy [11, 28]: 40%; %max [27]: 2050%"
C#Cc1ccc2c3nn(-c4ccc(OC)cc4)c(=O)c-3c[nH]c2c1,39,325,581,12,163,,,,732,,27,98,9,,,70,,,,,EC50 [26]: 5 µM; %max [27]: 946%
COc1ccc(-n2nc3c4ccc(OC)cc4[nH]cc-3c2=O)cc1,,234,400,,178,118,8,,702,1630,,143,31,71,,125,113,,446,105,"Efficacy [4, 28]: 59%; Efficacy [11, 28]: 75%"
